Results on four compounds are retold here after patent publication US9765329B2, “Adipocyte-targeting non-viral gene delivery system” (INDUSTRY-UNIVERSITY COOPERATION FOUNDATION HANYANG …, priority 2013, dated 2017).

The test system of series [1] is diet-induced obesity (DIO) mice. The experiment in a line: In vivo fat homing (pCLE, Cellvizio). Conditions: FITC-conjugated peptide, tail vein injection, obese mice. How it is done:
C57BL/6J mice at 3 weeks of age were purchased from Central Lab Animal Inc. (Korea). For the first two weeks, the mice were fed 50% normal diet and 50% rodent diet with 60 kcal % from fat. […] The mice became obese after week 14 (body weight>45 g).
FITC conjugated ATS-9R (10 mg/ml) and FITC-9R (10 mg/ml) were diluted in PBS to a final concentration of 1.5 mg/ml and 100 μl of peptide was injected into obese mice by tail vein injection. Immediately after injection, peptide localization in vasculatures of different organs was observed by Cellvizio (Mauna Kea Technologies, France).
In this example, in vivo experiments were conducted using diet-induced obesity (DIO) mice. FITC-ATS-R9 was administered to the obese mice by tail vein injection to observe the targeting of the ATS-R9 to adipose tissue. Tracking was visualized using probe-based confocal laser endomicroscopy (pCLE, Cellvizio).

The target in the next series is T1, prohibitin (Mus musculus, UniProt P67778).
T1 construct: endogenous in cells; host or cells: 3T3-L1 preadipocytes and differentiated mature adipocytes (day 10)
T1 sequence (P67778 1-272): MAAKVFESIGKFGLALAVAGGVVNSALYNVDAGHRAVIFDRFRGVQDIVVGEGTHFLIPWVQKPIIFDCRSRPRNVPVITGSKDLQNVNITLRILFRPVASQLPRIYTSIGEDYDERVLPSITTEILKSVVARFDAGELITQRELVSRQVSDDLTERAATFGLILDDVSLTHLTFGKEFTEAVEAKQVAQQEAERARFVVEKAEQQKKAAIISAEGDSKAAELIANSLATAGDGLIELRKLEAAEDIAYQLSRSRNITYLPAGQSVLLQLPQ
The experiment in a line: Binding of ATS to prohibitin (immunoprecipitation assay). How it is done:
(§1) To investigate the location and amount of prohibitin expressed depending on the degree of adipocyte differentiation, two types of adipocytes were treated with rhodamine B-labeled ATS (RhoB-ATS).
(§2) Binding of ATS to prohibitin was determined by an immunoprecipitation assay (FIG. 5a) and the distributions of prohibitin in 3T3-L1 preadipocytes and mature adipocytes were confirmed through the staining results (FIGS. 5b and 5c).

In another series the test system is 3T3-L1 mature adipocytes. The experiment in a line: Targeting of rhodamine B-labeled ATS depending on degree of differentiation. Conditions: RhoB-ATS. Format: cell-based. How it is done:
as §1, §2

For series [2], the system named is 3T3-L1 preadipocytes. The series is described as above. Format: cell-based. Conditions: RhoB-ATS. How it is done:
as §1, §2

Another series relates to C57BL/6J obese mice. The experiment in a line: In vivo internalization into adipose tissue and gene expression. How it is done: FITC-conjugated ATS-R9 was administered to C57BL/6J obese mouse by tail vein injection. Rhodamine-conjugated lectin was injected to stain blood vessels.
FITC-conjugated ATS-R9 was injected into C57BL/6J obese mice and fixed adipose tissue sections were incubated with biotin-conjugated anti-FITC antibody. Cy3-conjugated ExtrAvidin was used for signal amplification thereof. Images were observed using a multiphoton confocal laser scanning microscope.
Finally, in vivo gene expression was confirmed. To this end, red fluorescence protein (RFP) expressing plasmid was concentrated by FITC-ATS-R9 and the oligo-peptoplexes were injected into C57BL/6J obese mice. Non-treated mice were used as controls. Images were observed using a multiphoton confocal laser scanning microscope.

Series [3] deals with 3T3-L1 differentiated adipocytes. Description: Internalization of FITC-ATS-R9 into cells (confocal microscopy). The class given is cell-based. Conditions: FITC-conjugated ATS-R9 25 μg/ml, adipocytes at day 10. How it is done:
(§3) Cellmask Deep Red was purchased from Invitrogen and DAPI-Fluoromount-G was purchased from Southern Biotech. 3T3-L1 preadipocytes, H9c2, and HEK293 cells were grown and differentiated on coverslips placed in 6 well plates.
(§4) After 24 h of seeding, the cells were treated with the FITC conjugated ATS-R9 (25 μg/ml) and incubated in a time-dependent manner that ranged from 15 min to 72 h.
(§5) After incubation, culture media were replaced, and the cells were washed three times with PBS and fixed in 3.7% formaldehyde. The plasma membranes of the cells were stained with Cellmask Deep Red. The cells were washed again with PBS and mounted in the presence of DAPI to stain the nuclei. Images were captured with a Carl Zeiss confocal microscope.
(§6) To monitor the degree of internalization of ATS-R9 into cells, mature adipocytes and preadipocytes were treated with FITC-labeled ATS-R9 (FITC-ATS-R9) and the delivery of the support to the cells was investigated.
3T3-L1 differentiated adipocytes (at day 10) were treated with FITC-conjugated ATS-R9 (25 μg/ml) and incubated for predetermined periods. The plasma membranes of the cells were stained with Cellmask Deep Red and the nuclei were counterstained with DAPI. Blue channel (for DAPI) is depicted as white to show nuclear localization of ATS-R9. Images were captured with a confocal laser scanning microscope. Scale bar: 10 μm.

Series [4] concerns 3T3-L1 preadipocytes. The description is as above. Format: cell-based. How it is done:
as §3, §4, §5, §6

The subject of series [5] is luciferase plasmid DNA (p-β-Luci). Description: Gel retardation assay. Format: physicochemical. Conditions: charge ratio of ≧3. How it is done: 1 μg of luciferase plasmid DNA (p-β-Luci, Promega (USA)), deionized water, and ATS-R9 (charge ratios: 0.25, 0.5, 1, 3, 5, 7, and 9) were incubated for 30 min at room temperature to construct oligo-peptoplexes. The oligo-peptoplexes were subjected to electrophoresis under 0.5% TBE buffer solution in 0.8% agarose gel for 25 min (100 V). Naked DNA was used as a control. The DNA condensation efficiency of the ATS-R9 was compared with that of branched PEI (25 KDa, Sigma, USA).
The condensation efficacy of ATS-R9 was compared with that of branched PEI (25 kDa).
Oligo-peptoplexes were prepared with luciferase plasmid DNA (p-β-Luci), deionized water, and ATS-R9 or PEI with predetermined charge ratios and incubated for 30 min at room temperature.

A further series can be described thus: Serum protection assay. The class given is in vitro ADME. Conditions: 50% (vol/vol) mouse serum, 2 h at 37° C., optimum charge ratio. How it is done:
Oligo-peptoplexes were prepared at predetermined charge ratios, mouse serum was added to the polyplexes at a final concentration of 50% (vol/vol), and the samples were incubated for 2 h at 37° C.
For the decomplexation of DNA from the polyplexes after serum incubation, heparin in phosphate-buffered saline (pH 7.4, 0.5 mol/l NaCl) was added to the samples in the presence of 0.01 mol/l EDTA and incubated for 1 h. The samples were loaded in 0.8% agarose gel.

A short description of series [6]: Zeta potential and size measurement (DLS). Format: physicochemical. How it is done: 5 μg of luciferase plasmid DNA (p-β-Luci), deionized water, and ATS-R9 (charge ratios: 0.5, 1, 3, 5, 7, and 9) were incubated for 30 min at room temperature to construct oligo-peptoplexes. The mean diameters and surface zeta potentials of the oligo-peptoplexes were measured using DLS equipped with a Zetasizer-Nano ZS (Malvern Instruments, UK).

Series [7] in a line: In vitro cytotoxicity (MTT) assay. The class given is cell-based. Conditions: mouse, 3T3-L1 differentiated adipocytes (day 10); adipocytes at day 10, 48 h after transfection, charge ratio up to 9; read-out: cell viability. How it is done: (§7) Cell viability was measured by MTT [3-(4,5-dimethylthiazol-2-yl)-2,5-diphenyltetrazolium bromide]assay.
(§8) 3T3-L1 differentiated adipocytes were incubated in 24-well plates. The adipocytes (at day 10) were treated with oligo-peptoplexes prepared by luciferase plasmid DNA, plain DMEM medium, and ATS-9R at predetermined charge ratios. PEI polyplexes were used as the control.
(§9) After 48 h of transfection, 50 μl of MTT reagent was added to 500 μl medium in each well and incubated for 3 h at 37° C. The culture media were removed and 500 μl dimethyl sulfoxide (DMSO) was added to each well and incubated for 20 min at room temperature. Absorbance was measured at 570 nm.
(§10) 3T3-L1 differentiated adipocytes at day 10 were transfected with the oligo-peptoplexes. After 48 h of transfection, cell viability was analyzed by MTT assay (n=6).

Series [8] concerns 3T3-L1 differentiated adipocytes. Description: In vitro cytotoxicity (MTT) assay. Format: cell-based. Conditions: adipocytes at day 10, 48 h after transfection. How it is done:
as §7, §8, §9, §10

For series [9] the test system is unchanged. Description: In vitro transfection efficiency (luciferase assay). Conditions: charge ratio of 5, mature adipocytes at day 10, 72 h. The class given is cell-based.
Protocol: A luciferase assay kit was purchased from Promega (USA). A DC protein assay kit and bovine serum albumin standard were purchased from Bio-Rad Laboratories (USA). 3T3-L1 preadipocytes and differentiated adipocytes were seeded in 24 well plates.
Oligo-peptoplexes were prepared by mixing ATS-9R and 2 μg of luciferase plasmid DNA at a charge ratio of 5. R9 and PEI polyplexes were used as controls and prepared at a charge ratio of 5.
The cell lysates were then scraped, harvested, transferred to 1.5 ml microtubes, and centrifuged for 3 min at 13,000 rpm.
The luminescence of the cell lysates was measured on a 96-well plate luminometer (Berthold Detection Systems, Germany) with 20-second integration and expressed as relative luminescence units (RLU)/mg of cell protein. Protein concentration was determined by the DC protein assay kit with bovine serum albumin standard.
Mature adipocytes at day 10 of differentiation were transfected with p-β-Luci by ATS-R9, R9, and PEI at a charge ratio of 5.
To determine an optimum transfection time point, 3T3-L1 differentiated adipocytes were transfected with luciferase plasmid DNA (p-β-Luci) by ATS-R9 and PEI at a charge ratio of 5 at different days of differentiation.
Another series relates to Fabp4 gene. The experiment in a line: fabp4 sh-RNA gene silencing (RT-PCR). The class given is cell-based. Conditions: 3T3-L1 mature adipocytes, 2 μg of fabp4 sh-RNA. How it is done: First, 3T3-L1 mature adipocytes were transfected with 2 μg of fabp4 sh-RNA by ATS-R9, PEI, and lipofectamine and gene silencing efficiency was measured by RT-PCR. GAPDH was used as an endogenous control. As a result, the Fabp4 gene silencing efficiency was 70% or more (FIG. 15).

In the next series the test system is obese adipocytes. The experiment in a line: Comparison of gene delivery ability (luciferase gene). The class given is cell-based. How it is done: The ability of ATS-R9 to deliver luciferase gene to obese adipocytes was evaluated. PEI and lipofectamine were used as controls.
Gene delivery efficacies before and after adipocyte differentiation were compared.
Luciferase was used as a gene to be delivered and scrambled ATS was used as a fat-targeting sequence. The ability of (scrambled ATS)-R9 to deliver the gene to obese adipocytes was compared to that of ATS-R9.

“Also recorded” adds a separate entry of the source. Square brackets hold non-standard residues; d marks the D form. Ends that are not written are not given here. Peptide text beside a SMILES is read from it. Some results are limits rather than exact numbers.

In the case of “CRRRRRRRRRC (C[dR][dR][dR][dR][dR][dR][dR][dR][dR]C; cysteine pairing not given here) [R9, reference compound]”, in series [1], the “aggregation in fat pad vasculatures” value is recorded as “aggregation was not observed in the fat vasculatures” and the “binding to fat pad microvessels” value is on record as “no binding”.

With “CKGGRAKDC (optionally rhodamine B labeled; Synthetic peptide adipocyte targeting sequence) [ATS, used free or rhodamine B-labeled]”, in the series with prohibitin, the “ability to bind to prohibitin” value was “high ability to bind to prohibitin”. Moreover, the “targeting efficiency / delivery to obese cells after differentiation” value in the series on 3T3-L1 mature adipocytes is reported as “effectively delivered; also recorded: very high”. Besides, the “targeting efficiency to adipocytes before differentiation” value in the series on 3T3-L1 preadipocytes [2] was “not significantly high”.

“FITC-ATS-R9: FITC conjugated ATS-R9 (CKGGRAKDRRRRRRRRRC), SEQ ID NO: 2 (not fully specified (N-terminus); cysteine pairing not given here; also: FITC conjugated, site not given here)”: the “in vivo RFP gene expression” value in the series on C57BL/6J obese mice (RFP expressing plasmid concentrated by FITC-ATS-R9) was “clearly confirmed”. In the series on C57BL/6J obese mice (anti-FITC antibody, Cy3-ExtrAvidin), the “adipose tissue homing (immunofluorescence assay)” value is “confirms the induction”.

The viability is a per cent measure of how many cells are alive, often set against a control. On to `C[C@H](NC(=O)[C@H](CCCNC(=N)N)NC(=O)CNC(=O)CNC(=O)[C@H](CCCCN)NC(=O)[C@@H](N)CS)C(=O)N[C@@H](CCCCN)C(=O)N[C@@H](CC(=O)O)C(=O)N[C@@H](CCCNC(=N)N)C(=O)N[C@@H](CCCNC(=N)N)C(=O)N[C@@H](CCCNC(=N)N)C(=O)N[C@@H](CCCNC(=N)N)C(=O)N[C@@H](CCCNC(=N)N)C(=O)N[C@@H](CCCNC(=N)N)C(=O)N[C@@H](CCCNC(=N)N)C(=O)N[C@@H](CCCNC(=N)N)C(=O)N[C@@H](CCCNC(=N)N)C(=O)N[C@@H](CS)C(=O)O` [ATS-R9] (H-CKGGRAKDRRRRRRRRRC-OH; N-terminus and C-terminus assumed), for which, in series [3], the “strong fluorescence signals / steady state maintained” value came to 48 h, the “time to reach the cytoplasm” value is recorded as ≤ 15 min and the “time to reach the nuclei” value was ≤ 1 h. The “migration to the nuclei observed after” value in the series on 3T3-L1 preadipocytes [4] is listed as > 48 h. For the same compound, in series [5], the “DNA condensation (no DNA migration)” value is listed as “complete DNA condensation”. The “DNA degradation in serum” value in the series “Serum protection assay” is on record as “protected DNA from degradation”. Further, the “size of condensed DNA complex” value in series [6] (ATS-R9 bound to DNA, neutral conditions) is listed as ≤ 200 nm. For the same compound, the zeta potential result in [6] (charge ratio of ≧1 (description)) is reported as “positive”. Moreover, in series [7], the viability at 48 h was ≥ 90%. The “toxicity to differentiated adipocytes” value in [8] is given as “non-toxicity”. Besides, the “transfection efficiency (luciferase gene expression)” value in series [9] was “higher transfection efficiency and gene expression efficiency than PEI and R9”. Moreover, in [1], the “aggregation in fat pad vasculatures” value is recorded as “aggregated in the fat pad vasculature”; the “aggregation in the other organs (liver, kidney)” value is on record as “no aggregation was observed”; the “binding to fat pad microvessels” value is recorded as “bound to the fat pad microvessels”. Besides, in the series with C57BL/6J obese mice (tail vein injection, multiphoton confocal microscopy), the “internalization into in vivo adipose tissues” value was “penetrated the blood vessels and was gradually internalized into adipocytes”. In addition, the “Fabp4 gene silencing efficiency” value in the series with Fabp4 gene was ≥ 70%. In the series with obese adipocytes (before and after adipocyte differentiation), the “gene delivery efficacy as differentiation into obese adipocytes proceeded” value is listed as “increased”. In addition, the “gene delivery efficacy to obese adipocytes” value in the series with obese adipocytes (luciferase gene, PEI and lipofectamine as controls) is “superior to those of the other delivery systems PEI and lipofectamine”.
